Earlier results in patent US11278622B2, “Ceftolozane antibiotic compositions” (Merck Sharp & Dohme Corp., priority 2013, dated 2022).

Tested on: P. aeruginosa

MIC90: ≤ 2 µg/mL
SMILES: Cn1c(N)c(NC(=O)NCCN)c[n+]1CC1=C(C(=O)O)N2C(=O)[C@@H](NC(=O)/C(=N\OC(C)(C)C(=O)O)c3nsc(N)n3)[C@H]2SC1 [ceftolozane, (6R,7R)-3-[(5-amino-4-{[(2-aminoethyl)carbamoyl]amino}-1-methyl-1H-pyrazol-2-ium-2-yl)methyl]-7-({(2Z)-2-(5-amino-1,2,4-thiadiazol-3-yl)-2-[(1-carboxy-1-methylethoxy)imino]acetyl}amino)-8-oxo-5-thia-1-azabicyclo[4.2.0]oct-2-ene-2-carboxylate]
